Measured values as given in patent publication US9657013B2, “Inhibitors of hepatitis B virus covalently closed circular DNA formation and their method of use” (priority 2012, dated 2017).

Columns and labels:
HBV cccDNA = experiment: cccDNA inhibition assay (Southern blot of Hirt DNA); type: cell-based, hepatitis B virus; details: for levels of HBV cccDNA and DP-rcDNA in cell cultures / EC50: HepDES19 cells; for levels of HBV cccDNA and DP-rcDNA in cell cultures: day 12, figure legend; for EC50: 288 h, harvested at day 12, read-out: EC50 of reduction of cccDNA
Experimental: Cell cultures: HepG2.2.15 cells were maintained in DMEM/F12 medium (Mediatech, Manassas, Va.) supplemented with 10% fetal bovine serum, 100 U/ml penicillin and 100 μg/ml streptomycin, plus 400 μg/ml G418. Tetracycline inducible HBV producer cells, specifically HepDE19 and HepDES19 cells, were maintained in the same way as HepG2.2.15, but with the addition of 1 μg/ml tetracycline (Guo, H., D. Jiang, T. Zhou, A. Cuconati, T. M. Block, and J. T. Guo. 2007). To initiate HBV replication and cccDNA formation in HepDE19 and HepDES19 cells, tetracycline was withdrawn from the culture medium and the cells were cultured for the indicated time period.
Viral nucleic acid analysis: Total cellular RNA was extracted with TRIzol reagent (Invitrogen, Grand Island, N.Y.) by following manufacturer's directions. Ten microgram of total cellular RNA was resolved in 1.5% agarose gel containing 2.2 M formaldehyde and transferred onto Hybond-XL membrane (GE Healthcare, Piscataway, N.J.) in 20×SSC buffer. Intracellular hepadnaviral core DNA and cccDNA (Hirt DNA) were extracted as described previously (Guo, H., D. Jiang, T. Zhou, A. Cuconati, T. M. Block, and J. T. Guo. 2007. Guo, H., D. Jiang, T. Zhou, A. Cuconati, T. M. Block, and J. T. Guo. 2007. Guo, H., R. Mao, T. M. Block, and J. T. Guo. 2010. Guo, H., W. S. Mason, C. E. Aldrich, J. R. Saputelli, D. S. Miller, A. R. Jilbert, and J. E. Newbold. 2005). Half of the DNA samples recovered from one well of a 6-well-plate were resolved by electrophoresis into a 1.2% agarose gel and blotted onto Hybond-XL membrane. Membranes were probed with either an α-^32P-UTP (800 Ci/mmol, Perkin Elmer) labeled hepadnaviral minus (detecting DNA) or plus strand (detecting RNA) specific full-length riboprobe and exposed to a phosphorimager screen (Fuji Film, Tokyo, Japan). Hybridization signals were visualized by Typhoon FLA-7000 (GE Healthcare) and quantified with ImageQuantTL software (GE Healthcare). […]
Identification of compounds that inhibits cccDNA accumulation in HepDES19 cells: Compounds were tested on HepDES19 cells, which have a higher level of cccDNA production than HepDE19 cells (Guo, H., D. Jiang, T. Zhou, A. Cuconati, T. M. Block, and J. T. Guo. 2007). Briefly, after withdrawal of tetracycline, HepDES19 cells were left untreated, or were treated with compound at serial concentrations; tetracycline-free media was changed every other day with fresh compound supplementation. The concentration of DMSO in all experimental groups was normalized at 0.1%. The cells were harvested at day 12, viral RNA (top panel), core DNA (middle panel), and Hirt DNA (DP-rcDNA and cccDNA) (bottom panels) were extracted and analyzed by Northern blot and Southern blot, respectively. Shorter exposure of the Hirt DNA blot was used for the quantitative determination of DP-rcDNA signals. […] The reduction between DP-rcDNA and cccDNA was proportional compared with untreated control. […] Liu, C. P. Hu, and C. Chang. 2005. Guo, H., T. Zhou, D. Jiang, A. Cuconati, G. H. Xiao, T. M. Block, and J. T. Guo. 2007. Zhou, T., H. Guo, J. T. Guo, A. Cuconati, A. Mehta, and T. M. Block. 2006).

HBV polymerase = target: T1, HBV polymerase (Hepatitis B virus genotype D subtype ayw, UniProt P03156); experiment: endogenous DNA polymerase reaction (EPR); type: biochemical; details: for HBV polymerase activity: in vitro endogenous polymerase reaction, HBV virions from HepDE19 culture fluid
T1 construct: HBV virion stock (˜5×10^7 genome equivalents) concentrated from the supernatant of HepDE19 cells cultured in tetracycline-free medium; expressed in transfected cells; host or cells: HepDE19 cells (HBV-producing line, tetracycline-off); virions concentrated from the supernatant
Experimental: Endogenous DNA polymerase reaction (EPR): The EPR was performed as previously described with modifications (Guo, H., R. Mao, T. M. Block, and J. T. Guo. 2010). Briefly, EPR mixture was assembled with 10 μl of HBV virion stock (˜5×10^7 genome equivalents) concentrated from the supernatant of HepDE19 cells cultured in tetracycline-free medium (Guo, H., D. Jiang, T. Zhou, A. Cuconati, T. M. Block, and J. T. Guo. 2007, plus 15 μl of 2×EPR buffer which consisted of 0.3 M NaCl, 0.1 M Tris-HCl (pH 8.0), 20 mM MgCl2, 2 mM dithiothreitol, 0.2% (vol/vol) Nonidet P-40, 0.2 mM each of dATP/dGTP/dTTP, and 10 μM α-^32P-dCTP. Compounds were added as indicated and water was supplemented to bring the reaction volume to 30 μl. As a positive control, 0.2 mM of dGTP in the 2×EPR buffer was replaced with 0.2 mM ddGTP. After incubation at 37° C. for 1 hours, the reaction solution was dotted on Whatman 3M filter (Millipore, Billerica, Mass.) and subjected to rinse with 10% trichloride acid for 30 min at room temperature, followed by 3 times of wash with 95% ethanol, 5 min each. The radioactivity (counts of per minute, CPM) of acid insoluble ^32P was counted with a liquid scintillation counter (PerkinElmer, Waltham, Mass.).

T1 sequence (P03156 whole entry): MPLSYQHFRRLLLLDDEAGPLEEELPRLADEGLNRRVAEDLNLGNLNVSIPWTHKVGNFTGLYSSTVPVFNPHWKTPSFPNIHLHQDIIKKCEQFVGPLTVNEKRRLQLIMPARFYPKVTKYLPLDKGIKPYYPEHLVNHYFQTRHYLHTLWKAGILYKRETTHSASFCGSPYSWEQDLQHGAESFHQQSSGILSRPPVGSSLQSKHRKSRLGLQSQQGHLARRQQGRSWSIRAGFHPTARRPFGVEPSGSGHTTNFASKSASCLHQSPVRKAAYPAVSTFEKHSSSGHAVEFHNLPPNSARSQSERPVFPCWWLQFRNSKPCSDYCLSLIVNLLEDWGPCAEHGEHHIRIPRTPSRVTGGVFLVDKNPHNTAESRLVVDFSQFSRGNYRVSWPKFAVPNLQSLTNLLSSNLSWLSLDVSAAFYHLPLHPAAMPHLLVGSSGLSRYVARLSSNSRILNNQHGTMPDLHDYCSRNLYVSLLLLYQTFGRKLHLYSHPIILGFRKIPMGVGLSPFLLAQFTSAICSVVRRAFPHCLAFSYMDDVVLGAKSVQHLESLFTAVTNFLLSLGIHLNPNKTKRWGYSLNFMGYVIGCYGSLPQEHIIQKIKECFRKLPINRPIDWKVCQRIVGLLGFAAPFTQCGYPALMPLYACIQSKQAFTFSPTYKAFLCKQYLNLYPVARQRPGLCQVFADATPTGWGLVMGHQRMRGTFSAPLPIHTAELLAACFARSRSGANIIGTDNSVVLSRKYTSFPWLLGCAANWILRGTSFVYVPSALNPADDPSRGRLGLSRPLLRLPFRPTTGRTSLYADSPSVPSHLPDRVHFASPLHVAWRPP

Structure (SMILES)	levels of HBV cccDNA and DP-rcDNA in cell cultures (HBV cccDNA)	EC50 (HBV cccDNA; Hepatitis B virus) [µM]	inhibition at 0.3 µM (HBV cccDNA; Hepatitis B virus, Concentration 0.3 μM, read-out: cccDNA inhibition % Reduction) [%]	inhibition at 1 µM (HBV cccDNA; Hepatitis B virus, Concentration 1 μM, read-out: cccDNA inhibition % Reduction) [%]	inhibition at 3 µM (HBV cccDNA; Hepatitis B virus, Concentration 3 μM, read-out: cccDNA inhibition % Reduction) [%]	viral polymerase activity (HBV polymerase; endogenous polymerase reaction, compound at 3 μM)	HBV polymerase activity (HBV polymerase)	cccDNA inhibition % Reduction (HBV cccDNA; Concentration 1 μM, 1 µM) [%]	cccDNA inhibition % Reduction (HBV cccDNA; Concentration 3 μM, 3 µM) [%]	cccDNA inhibition % Reduction (HBV cccDNA; Concentration 10 μM, 10 µM) [%]	HBV polymerase activity (HBV polymerase; listed as 2-[Benzenesulfonyl-(2-chloro-5-trifluoromethyl-phenyl)-amino]-N-pyridin-4-ylmeth)	HBV polymerase activity (HBV polymerase; listed as 2-[benzenesulfonyl-(2-chloro-5-trifluoromethyl-phenyl)-amino]-N-pyridin-4-ylmeth)
Cc1nc2cc(NC(=O)c3ccc(S(=O)(=O)N(C)Cc4ccccc4)cc3)ccc2s1 [CCC-0346, 4-(Benzyl-methyl-sulfamoyl)-N-(2-methyl-benzothiazol-5-yl)-benzamide]	reduces	3	20	30	60	does not inhibit	did not inhibit	–	–	–	–	–
O=C(CN(c1cc(C(F)(F)F)ccc1Cl)S(=O)(=O)c1ccccc1)NCc1ccncc1 [CCC-0975, 2-[Benzenesulfonyl-(2-chloro-5-trifluoromethyl-phenyl)-amino]-N-pyridin-4-ylmethyl-acetamide]	reduces	10	–	–	–	–	–	10	20	70	does not inhibit	did not inhibit
